pIC50: −log10 of the molar value. Where “and” joins values, the source holds several entries; their conditions need not be identical. Equal values may be shown once. Read-outs that look alike come from different tables or passages of the source.
Biological target: T1, Recombinant human Glo-I (rhGlo-I) (Homo sapiens, UniProt Q04760)
T1 construct: purchased R&D Systems Corporation
T1 sequence (Q04760 2-184 limits assumed): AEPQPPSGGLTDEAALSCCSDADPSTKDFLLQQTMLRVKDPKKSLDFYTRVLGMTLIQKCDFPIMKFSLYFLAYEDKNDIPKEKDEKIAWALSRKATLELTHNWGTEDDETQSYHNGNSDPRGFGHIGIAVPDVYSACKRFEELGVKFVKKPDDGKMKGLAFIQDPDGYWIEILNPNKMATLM
Experiment: In vitro Glo-I enzyme inhibition assay (spectrophotometric, 240 nm)
Format: biochemical
Design: average inhibitory activity: dose or concentration left out as unconfirmed
Settings: for % Inhibition / inhibition at 1.25 µM / inhibition at 2.5 µM / inhibition at 5 µM / inhibition at 10 µM / inhibition at 0.625 µM: single replicates
Method: Glo-I inhibitory action was evaluated following the methodology described by Al-Balas et al.. Recombinant human Glo-I (rhGlo-I) was procured from R&D Systems Corporation and […] in sterile deionized water at a precise concentration of 0.5 mg/ml before being reconstituted. The reconstituted rhGlo-I was stored at -70 °C until further use. Dimethyl sulfoxide (DMSO) was used to dissolve the test compounds to produce stock solutions with a 10 mM concentration. The assay buffer required for the experiment was made by mixing 0.1 M sodium phosphate monobasic solution with 0.1 M sodium phosphate dibasic solution, resulting in a pH range of 7.0–7.2. The reduced glutathione and methylglyoxal solutions were combined with a sufficient 0.1 M sodium phosphate assay buffer volume to create the substrate combination. In a cuvette, the assay buffer, substrate solution, and Glo-I enzyme were combined with the synthesized products at the required concentration. […] The maximum absorbance (γmax) was recorded at 240 nm.
In this study, the inhibitory activity of all synthesized compounds against the Glo-I enzyme was evaluated in vitro using recombinant human Glo-I obtained from R&D Systems Corporation. The methodology previously described was employed, which involved measuring the inhibition of Glo-I activity and substrate hydrolysis using a spectrophotometer at 240 nm. […] The activity profile of the tested compounds against Glo-I is depicted in Figure 12.

[1] = concentration 0.625 µM, 0.625 µM
[2] = from the % inhibition curve, 0.625-10 µM, read-out: Calculated IC50
[3] = rhGlo-I, 25 °C, pH 7.0-7.2, read-out: IC50

% Inhibition [1]	inhibition at 1.25 µM (concentration 1.25 µM) [%]	% Inhibition (concentration 1.25 µM, 1.25 µM)	inhibition at 2.5 µM (concentration 2.5 µM) [%]	% Inhibition (concentration 2.5 µM, 2.5 µM)	inhibition at 5 µM (concentration 5 µM) [%]	% Inhibition (concentration 5 µM, 5 µM)	inhibition at 10 µM (concentration 10 µM) [%]	% Inhibition (concentration 10 µM, 10 µM)	pIC50 [2]	pIC50 [3]	average inhibitory activity [%]	inhibition at 0.625 µM (concentration 0.625 µM) [%]	Compound
4.207% and 6.929% and 8.658%	12	11.45% and 12.03%	11.8	13.44% and 14.71%	18.8	20.12% and 19.93%	33.4	34.53% and 33.46%	4.55	4.55	–	–	O=C(/C=C/c1ccc(O)c(O)c1)Nc1cccc2c1C(=O)c1ccccc1C2=O [MQ1, (E)-3-(3,4-dihydroxyphenyl)-N-(9, 10-dioxo-9, 10-dihydroanthracen-1-yl) acrylamide]
28.34% and 22.6726%	39.2	42.53% and 40.76%	69.6	70.04% and 70.55%	82.3	84.9% and 85.44%	97.5	93.8% and 98.6%	5.84	5.84	96.63	27.5	O=C(/C=C/c1ccc(O)c(O)c1)Nc1ccc2c(c1)C(=O)c1ccccc1C2=O [MQ3, (E)-3-(3,4-dihydroxyphenyl)-N-(9, 10-dioxo-9, 10-dihydroanthracen-2-yl) acrylamide]
6.208% and 1.894% and 2.93%	5.03	3.871% and 7.392%	10.8	12.3% and 11.67%	19.4	20.18% and 23.19%	40.4	41.45% and 37.85%	4.84	4.84	–	–	O=C(C=Cc1ccccc1)Nc1ccc2c(c1)C(=O)c1ccccc1C2=O [MQ4, N-(9, 10-dioxo-9, 10-dihydroanthracen-2-yl) cinnamamide]
8.55% and 10.84%	10.2	9.974% and 12.33%	14.3	12.23% and 12.25%	11.6	12.81% and 20.99%	22	29% and 27.36%	3.97	3.97	–	8.82	O=C(C=Cc1ccccc1)Nc1cccc2c1C(=O)c1ccccc1C2=O [MQ5, N-(9, 10-dioxo-9, 10-dihydroanthracen-1-yl) cinnamamide]
